From US20230077290A1, “HEAVY METAL-FREE CALCIUM HYDROXIDE-BASED ACTIVE SUBSTANCE” (KALKFABRIK NETSTAL AG, priority 2016, published 2023)

Legend:
Plasmopara viticola = assay: Tests against Plasmopara viticola on grapes, dust application before inoculation; type: in vivo, Plasmopara viticola on Chasselas grapes; details: for % leaf surface with symptoms of infection: average +/- standard deviation; for effect on Plasmopara viticola infection, in words: grapes, dust application, positive control Kocide Opti 0.003%
Experimental: Tests Against Plasmopara Viticola on Grapes The above-describe samples were tested in an independent plant research institute. The tests were set up as blind tests parallel to the following controls presented below. Study Design: […] For inoculation, the abaxial side of the fully developed leaves of Plasmopara viticola (50,000 spores/mL) were sprayed, and the entire plant was inoculated. Two types of all of the tests were performed: […] Dust application on the dry test plant before inoculation with the pathogen (so-called standard method) […] Dust application on a wet test plant before inoculation with the pathogen. […] Portion of infected leaf surface in percent of the overall leaf surface. The combined “efficacy severity” was then calculated from this in percent. Controls: […]

[1] = known compounds with very high capacity; cited from earlier work
[2] = Type 1 (dry), study of examples 1 and 2
[3] = Type 2 (wet), study of examples 1 and 2
[4] = Type 1 (dry), study of examples 3 and 4
[5] = Type 2 (wet), study of examples 3 and 4

[Ca+2].[OH-].[OH-] [Example 2, Calcium hydroxide]
% leaf surface with symptoms of infection (Plasmopara viticola; Type 1 (dry) dust application on dry plant, study of examples 1 and 2): 50 +/− 22% | % infected leaves (Plasmopara viticola; [2]): 89 +/− 17% | Efficacy severity (Plasmopara viticola; [2]): 46.8% | % leaf surface with symptoms of infection (Plasmopara viticola; Type 2 (wet) dust application on wet plant, study of examples 1 and 2): 59 +/− 22% | % infected leaves (Plasmopara viticola; [3]): 93 +/− 10% | Efficacy severity (Plasmopara viticola; [3]): 36.4% | effect on Plasmopara viticola infection, in words (Plasmopara viticola): only a slight reduction of the infection

O=C([O-])[O-].[Li+].[Li+] [Li2CO3]
acid neutralization capacity bH+ [1]: 27 mol/kg

N [NH3]
acid neutralization capacity bH+ [1]: 59 mol/kg

[Na+].[OH-] [NaOH]
acid neutralization capacity bH+ [1]: 25 mol/kg

Calcium stearate [Example 4]
Efficacy severity (Plasmopara viticola; [4]): 7.3% | % leaf surface with symptoms of infection (Plasmopara viticola; [4]): 62 +/− 20% | % infected leaves (Plasmopara viticola; Type 1 (wet) as printed, study of examples 3 and 4): 93 +/− 10% | % infected leaves (Plasmopara viticola; [5]): 91 +/− 10% | Efficacy severity (Plasmopara viticola; [5]): 13.3% | % leaf surface with symptoms of infection (Plasmopara viticola; [5]): 58 +/− 8% | effect on Plasmopara viticola infection, in words (Plasmopara viticola): inactive
